# Assay results: publication PMC3433420 (PLoS ONE, 2012)
# Residues, ends and D or L forms follow the SMILES beside them.
# Tests used:
# Test in all cases: FP saturation binding assay
# FGR SH2 domain = biological target: T1, FGR SH2 domain (Homo sapiens, UniProt P09769); settings: Protein FGR, high-confidence ErbB interactions, mean over replicate hits
# T1 construct: 93 SH2 and 2 PTB domain-containing constructs; 6X His; thioredoxin; made in house; host or cells: E. coli BL21(DE3)pLysS
# Summary of the method: (§1)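 Rhodamine-labeled phosphopeptides (10 nM final) titrated with SH2 domain protein (0.002–10 µM, 12 points) in 20 mM HEPES, 100 mM KCl, 0.1% Tween-20, 5 mM DTT, pH 7.8; 20 min, room temperature, dark. FP read at 530/555 nm; KD fitted by nonlinear regression after thioredoxin background correction and outlier removal.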
# HCK SH2 domain = biological target: T2, HCK SH2 domain (Homo sapiens, UniProt P08631); settings: protein HCK, high-confidence ErbB interactions, mean of replicate hits
# T2 construct: 93 SH2 and 2 PTB domain-containing constructs; 6X His; thioredoxin; made in house; host or cells: E. coli BL21(DE3)pLysS
# T2 sequence (P08631 144-241 limits assumed): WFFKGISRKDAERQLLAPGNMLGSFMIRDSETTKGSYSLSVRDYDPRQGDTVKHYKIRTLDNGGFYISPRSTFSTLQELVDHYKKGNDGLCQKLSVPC
# Summary of the method: as §1
# PIK3R1-C SH2 domain = biological target: T3, PIK3R1-C SH2 domain (Homo sapiens, UniProt P27986); settings: protein PIK3R1-C, high-confidence ErbB interactions, mean of replicate hits
# T3 construct: 6X His; thioredoxin; made in house; host or cells: E. coli BL21(DE3)pLysS
# T3 sequence (P27986 624-718 limits assumed): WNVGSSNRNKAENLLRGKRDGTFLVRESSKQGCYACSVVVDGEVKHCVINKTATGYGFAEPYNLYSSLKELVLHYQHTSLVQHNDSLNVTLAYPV
# Summary of the method: as §1
# ABL2 SH2 domain = biological target: T4, ABL2 SH2 domain (Homo sapiens, UniProt P42684); settings: protein ABL2, high-confidence ErbB interactions, mean of replicate hits
# T4 construct: 93 SH2 and 2 PTB domain-containing constructs; 6X His; thioredoxin; made in house; host or cells: E. coli BL21(DE3)pLysS
# T4 sequence (P42684 173-263 limits assumed): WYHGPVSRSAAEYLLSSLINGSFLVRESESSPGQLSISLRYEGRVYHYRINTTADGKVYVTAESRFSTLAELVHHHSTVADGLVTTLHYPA
# Summary of the method: as §1
# SRC SH2 domain = biological target: T5, SRC SH2 domain (Homo sapiens, UniProt P12931); settings: protein SRC; high-confidence ErbB interactions; mean of replicate hits
# T5 construct: between the c-Src SH2 domain and ErbB1 in our FP assay; 6X His; thioredoxin; made in house; host or cells: E. coli BL21(DE3)pLysS
# T5 sequence (P12931 151-248 limits assumed): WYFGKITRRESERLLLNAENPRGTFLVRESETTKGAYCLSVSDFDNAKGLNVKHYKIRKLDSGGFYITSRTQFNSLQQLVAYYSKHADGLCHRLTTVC
# Summary of the method: as §1
# T1 sequence (P09769 144-241 limits assumed): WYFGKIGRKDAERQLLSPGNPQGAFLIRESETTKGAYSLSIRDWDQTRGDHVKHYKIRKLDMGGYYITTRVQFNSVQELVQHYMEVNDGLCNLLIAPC
structure (smiles),measurement,setting,value
CC(C)C[C@H](NC(=O)[C@H](CC(N)=O)NC(=O)[C@@H](N)CC(=O)O)C(=O)N[C@@H](Cc1ccc(O)cc1)C(=O)N[C@@H](Cc1ccc(OP(=O)(O)O)cc1)C(=O)N[C@@H](Cc1c[nH]c2ccccc12)C(=O)N[C@@H](CC(=O)O)C(=O)N[C@@H](CCC(N)=O)C(=O)N[C@@H](CC(=O)O)C(=O)N1CCC[C@H]1C(=O)N1CCC[C@H]1C(=O)N[C@@H](CCC(=O)O)C(=O)N[C@@H](CC(=O)O)C(=O)O [ErbB2 1222 13-mer] (HELM PEPTIDE1{D.N.L.Y.[O=C([C@H](Cc1ccc(OP(=O)(O)O)cc1)N[*:1])[*:2]].W.D.Q.D.P.P.E.D}$$$$V2.0),Kd,FGR SH2 domain,8.34 µM
CSCC[C@H](NC(=O)[C@H](Cc1ccc(OP(=O)(O)O)cc1)NC(=O)[C@H](CCC(=O)O)NC(=O)[C@H](Cc1ccc(O)cc1)NC(=O)CNC(=O)[C@@H](N)CC(C)C)C(=O)N[C@@H](CC(=O)O)C(=O)N[C@H](C(=O)NCC(=O)N[C@@H](CO)C(=O)N[C@@H](CC(=O)O)C(=O)N[C@@H](CC(C)C)C(=O)N[C@@H](CC(=O)O)C(=O)O)C(C)C [ErbB3 1224 13-mer] (HELM PEPTIDE1{L.G.Y.E.[O=C([C@H](Cc1ccc(OP(=O)(O)O)cc1)N[*:1])[*:2]].M.D.V.G.S.D.L.D}$$$$V2.0),Kd,HCK SH2 domain,10.9 µM
CSCC[C@H](NC(=O)[C@H](CCC(=O)O)NC(=O)[C@H](CCC(=O)O)NC(=O)[C@H](Cc1ccc(OP(=O)(O)O)cc1)NC(=O)CNC(=O)[C@H](CCC(N)=O)NC(=O)[C@H](CCC(=O)O)NC(=O)[C@@H](N)CO)C(=O)N[C@@H](CCCNC(=N)N)C(=O)N[C@@H](C)C(=O)N[C@@H](Cc1ccccc1)C(=O)N[C@@H](CCC(N)=O)C(=O)N[C@@H](CC(=O)O)C(=O)O [ErbB3 1289 13-mer] (HELM PEPTIDE1{S.E.Q.G.[O=C([C@H](Cc1ccc(OP(=O)(O)O)cc1)N[*:1])[*:2]].E.E.M.R.A.F.Q.D}$$$$V2.0),Kd,PIK3R1-C SH2 domain,0.2 µM
CSCC[C@H](NC(=O)[C@H](Cc1ccc(OP(=O)(O)O)cc1)NC(=O)CNC(=O)[C@H](CCC(=O)O)NC(=O)[C@H](CCC(=O)O)NC(=O)[C@H](CC(=O)O)NC(=O)[C@H](CC(C)C)NC(=O)[C@H](CCC(=O)O)NC(=O)CNC(=O)[C@H](CCCNC(=N)N)NC(=O)[C@@H]1CCCN1)C(=O)N[C@H](C(=O)N1CCC[C@H]1C(=O)N[C@@H](CCSC)C(=O)N[C@@H](CCCNC(=N)N)C(=O)N[C@@H](CC(=O)O)C(=O)N[C@@H](CCCCN)C(=O)N[C@@H](CC(=O)O)C(=O)O)[C@@H](C)O [ErbB4 1150 18-mer] (HELM PEPTIDE1{P.R.G.E.L.D.E.E.G.[O=C([C@H](Cc1ccc(OP(=O)(O)O)cc1)N[*:1])[*:2]].M.T.P.M.R.D.K.D}$$$$V2.0),Kd,ABL2 SH2 domain,8.25 µM
CC(C)C[C@H](NC(=O)[C@H](Cc1ccc(OP(=O)(O)O)cc1)NC(=O)[C@H](CC(C)C)NC(=O)[C@@H]1CCCN1C(=O)[C@H](CCC(=O)O)NC(=O)[C@H](CC(N)=O)NC(=O)[C@@H](NC(=O)[C@H](Cc1ccc(O)cc1)NC(=O)[C@H](CCC(=O)O)NC(=O)[C@H](CC(=O)O)NC(=O)[C@@H](N)CCC(=O)O)C(C)C)C(=O)N[C@@H](CC(N)=O)C(=O)N[C@H](C(=O)N[C@@H](Cc1ccccc1)C(=O)N[C@@H](C)C(=O)N[C@@H](CC(N)=O)C(=O)N[C@H](C(=O)N[C@@H](CC(=O)O)C(=O)O)[C@@H](C)O)[C@@H](C)O [ErbB4 1208 18-mer] (HELM PEPTIDE1{E.D.E.Y.V.N.E.P.L.[O=C([C@H](Cc1ccc(OP(=O)(O)O)cc1)N[*:1])[*:2]].L.N.T.F.A.N.T.D}$$$$V2.0),Kd,SRC SH2 domain,5.84 µM
